± gives the standard deviation of the averaged measurements.
Compound: CC(=O)N1CCc2c(c(N3CCCc4cc(-c5cnn(C)c5)c(C(F)F)cc43)nn2C2CCC(CN3CCN(c4ccc5c(c4)C(=O)N(C4CCC(=O)NC4=O)C5=O)CC3)CC2)C1 [CBPD-409]
Assay: AUC of viability dose-response curve (relative to vehicle, 8 doses up to 10 µM) (fraction); higher = less sensitive (more viable); extreme values may be limits of the assay
Description: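 PRISM multiplexed pooled barcoded cell line viability screen at the Broad Institute, 887 cancer cell lines treated with CBPD-409 (p300/CBP PROTAC degrader) at 8 concentrations in threefold dilution, top dose 10 µM. The read-out is the area under the dose-response curve of relative viability versus vehicle (n=3). AUC < 0.3 is called strongly sensitive and AUC > 0.8 resistant.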

| Test System | AUC of viability dose-response curve |
| --- | --- |
| SUPB15_HAEMATOPOIETIC_AND_LYMPHOID_TISSUE | 0.185 |
| NCIH1092_LUNG | 1 |
| SNU761_LIVER | 0.855 |
| G361_SKIN | 0.186 |
| HCC1937_BREAST | 0.957 |
| NP3_CENTRAL_NERVOUS_SYSTEM | 0.802 |
| MONOMAC6_HAEMATOPOIETIC_AND_LYMPHOID_TISSUE | 0.577 |
| 769P_KIDNEY | 0.395 |
| YD38_UPPER_AERODIGESTIVE_TRACT | 0.559 |
| NCIH1944_LUNG | 1 |
| WM2664_SKIN | 0.988 |
| C32_SKIN | 0.562 |
| SW579_THYROID | 0.197 |
| NCIH838_LUNG | 0.893 |
| LUDLU1_LUNG | 1 |
| HCC95_LUNG | 1 |
| 8505C_THYROID | 0.943 |
| NCIH1876_LUNG | 1 |
| HCC15_LUNG | 1 |
| BICR31_UPPER_AERODIGESTIVE_TRACT | 0.695 |
| JURKAT_HAEMATOPOIETIC_AND_LYMPHOID_TISSUE | 0.66 |
| SW780_URINARY_TRACT | 1 |
| HS294T_SKIN | 0.929 |
| DETROIT562_UPPER_AERODIGESTIVE_TRACT | 0.68 |
| TE6_OESOPHAGUS | 0.914 |

| Test System | AUC of viability dose-response curve |
| --- | --- |
| SHMAC5_PROSTATE | 1 |
| S117_THYROID | 0.612 |
| NCIH1792_LUNG | 0.59 |
| COLO679_SKIN | 0.3 |
| JL1_PLEURA | 0.532 |
| QGP1_PANCREAS | 0.661 |
| 9505BIK_PANCREAS | 1 |
| SJSA1_BONE | 0.673 ± 0.46 |
| JVM3_HAEMATOPOIETIC_AND_LYMPHOID_TISSUE | 1 |
| HAC2_OVARY | 1 |
| PK45H_PANCREAS | 1 |
| KLE_ENDOMETRIUM | 0.91 |
| SKMES1_LUNG | 0.848 |
| RPMI8402_HAEMATOPOIETIC_AND_LYMPHOID_TISSUE | 0.266 |
| BCPAP_THYROID | 0.885 |
| SEM_HAEMATOPOIETIC_AND_LYMPHOID_TISSUE | 0.347 |
| HCSC1_CERVIX | 0.357 |
| TF1_HAEMATOPOIETIC_AND_LYMPHOID_TISSUE | 0.757 |
| PECAPJ15_UPPER_AERODIGESTIVE_TRACT | 0.917 |
| KCL22_HAEMATOPOIETIC_AND_LYMPHOID_TISSUE | 0.552 |
| MELJUSO_SKIN | 1 |
| YSCCC_BILIARY_TRACT | 0.853 |
| TGBC1TKB_BILIARY_TRACT | 1 |
| OSRC2_KIDNEY | 1 |
| MEG01_HAEMATOPOIETIC_AND_LYMPHOID_TISSUE | 0.74 |

| Test System | AUC of viability dose-response curve |
| --- | --- |
| MCF7_BREAST | 0.701 |
| SNU61_LARGE_INTESTINE | 0.875 |
| MOLM14_HAEMATOPOIETIC_AND_LYMPHOID_TISSUE | 0.212 |
| NCIH1975_LUNG | 0.862 |
| SW837_LARGE_INTESTINE | 0.72 |
| UO31_KIDNEY | 1 |
| STM9101_SOFT_TISSUE | 1 |
| NUGC3_STOMACH | 1 |
| C33A_CERVIX | 1 |
| CAL72_BONE | 0.839 |
| IGR1_SKIN | 0.626 |
| 921_UVEA | 0.336 |
| SKOV3_OVARY | 1 |
| L82_HAEMATOPOIETIC_AND_LYMPHOID_TISSUE | 0.44 |
| SKN_ENDOMETRIUM | 0.778 |
| KOPN8_HAEMATOPOIETIC_AND_LYMPHOID_TISSUE | 0.704 |
| DKMG_CENTRAL_NERVOUS_SYSTEM | 0.733 |
| MM127_SKIN | 1 |
| MFE319_ENDOMETRIUM | 0.353 |
| HEC1A_ENDOMETRIUM | 0.407 |
| LN18_CENTRAL_NERVOUS_SYSTEM | 0.607 |
| AM38_CENTRAL_NERVOUS_SYSTEM | 1 |
| JHH5_LIVER | 0.614 |
| ICC15_BILIARY_TRACT | 0.265 |
| PECAPJ49_UPPER_AERODIGESTIVE_TRACT | 0.455 |

| Test System | AUC of viability dose-response curve |
| --- | --- |
| OE19_OESOPHAGUS | 0.884 |
| HCC1359_LUNG | 1 |
| HSC1_SKIN | 1 |
| ZR751_BREAST | 0.411 |
| HARA_LUNG | 0.981 |
| 143B_BONE | 1 |
| LN382_CENTRAL_NERVOUS_SYSTEM | 1 |
| NCIH650_LUNG | 0.606 |
| JHUEM2_ENDOMETRIUM | 0.965 |
| ISHIKAWAHERAKLIO02ER_ENDOMETRIUM | 1 |
| OCILY132_HAEMATOPOIETIC_AND_LYMPHOID_TISSUE | 1 |
| EKVX_LUNG | 1 |
| LN229_CENTRAL_NERVOUS_SYSTEM | 1 |
| KYSE70_OESOPHAGUS | 1 |
| T24_URINARY_TRACT | 1 |
| MALME3M_SKIN | 0.272 |
| MEWO_SKIN | 0.268 |
| NCIH2110_LUNG | 0.703 |
| A427_LUNG | 0.884 |
| HCC1395_BREAST | 0.783 |
| SW948_LARGE_INTESTINE | 0.577 |
| BV173_HAEMATOPOIETIC_AND_LYMPHOID_TISSUE | 0.271 |
| LS_AUTONOMIC_GANGLIA | 0.248 |
| PEA1_OVARY | 0.845 |
| KYSE450_OESOPHAGUS | 0.761 |

| Test System | AUC of viability dose-response curve |
| --- | --- |
| MOLT13_HAEMATOPOIETIC_AND_LYMPHOID_TISSUE | 1 |
| EFM19_BREAST | 0.575 |
| HCC1954_BREAST | 1 |
| ULA_HAEMATOPOIETIC_AND_LYMPHOID_TISSUE | 0.813 |
| SW1990_PANCREAS | 1 |
| KMRC1_KIDNEY | 1 |
| YH13_CENTRAL_NERVOUS_SYSTEM | 0.75 |
| MESSA_SOFT_TISSUE | 0.126 |
| TTC1240_SOFT_TISSUE | 0.187 |
| BC3C_URINARY_TRACT | 1 |
| RKO_LARGE_INTESTINE | 0.854 |
| AMO1_HAEMATOPOIETIC_AND_LYMPHOID_TISSUE | 0.46 |
| NCIH647_LUNG | 1 |
| NCIH520_LUNG | 0.861 |
| BOKU_CERVIX | 0.581 |
| 1618K_TESTIS | 0.518 |
| TFK1_BILIARY_TRACT | 0.717 |
| BFTC909_KIDNEY | 1 |
| CAL27_UPPER_AERODIGESTIVE_TRACT | 0.961 |
| PANC1005_PANCREAS | 1 |
| SUDHL1_HAEMATOPOIETIC_AND_LYMPHOID_TISSUE | 0.75 |
| DU4475_BREAST | 0.831 |
| CAL78_BONE | 0.486 |
| BT12_SOFT_TISSUE | 0.706 |
| KD_SOFT_TISSUE | 0.299 |

| Test System | AUC of viability dose-response curve |
| --- | --- |
| HCC1806_BREAST | 1 |
| T84_LARGE_INTESTINE | 1 |
| KMCH1_BILIARY_TRACT | 0.96 |
| COV318_OVARY | 0.899 |
| NCIH524_LUNG | 1 |
| KE37_HAEMATOPOIETIC_AND_LYMPHOID_TISSUE | 0.925 |
| HLF_LIVER | 1 |
| LMSU_STOMACH | 0.672 |
| DMS53_LUNG | 0.475 |
| 647V_URINARY_TRACT | 0.394 |
| SNU449_LIVER | 0.947 |
| PANC0327_PANCREAS | 1 |
| HSC5_SKIN | 0.644 |
| GCT_SOFT_TISSUE | 0.541 |
| OACM51_OESOPHAGUS | 1 |
| 8MGBA_CENTRAL_NERVOUS_SYSTEM | 0.79 |
| HUPT4_PANCREAS | 0.784 |
| SNGM_ENDOMETRIUM | 0.527 |
| SCC25_UPPER_AERODIGESTIVE_TRACT | 1 |
| BICR56_UPPER_AERODIGESTIVE_TRACT | 0.862 |
